Laboratory results taken from article PMC10761377 (2023).

What was measured:
[1] = system: FPAP (fipronil aptamer with primers) (DNA, aptamer) TGTACCGTCTGAGCGATTCGTACAGTTTCTGGAGGACTGGGCGGGGTGACGGTTATGAGCCAGTCAGTGTTAAGGAGTGC; test: chronoamperometric binding titration on SPCE (streptavidin-HRP/TMB); details: NaCl 100 mM, MgCl2 2 mM; Tris-HCl 20 mM; 30 min; apparent; immobilised compound (amide-linked to poly-2-aminobenzoic acid electrode); logistic fit
[2] = system: FPAS (fipronil aptamer Short) (DNA, aptamer) AGTTTCTGGAGGACTGGGCGGGGTGACGGTTATG; test: electrochemical competitive replacement assay (chronoamperometry); details: free fipronil displaces 1 µM-loaded aptamer from immobilised fipronil; 1 h
[3] = system: FPAS (fipronil aptamer Short) (DNA, aptamer) AGTTTCTGGAGGACTGGGCGGGGTGACGGTTATG; test: chronoamperometric binding titration on SPCE (streptavidin-HRP/TMB); details: NaCl 100 mM, MgCl2 2 mM; Tris-HCl 20 mM; 30 min; apparent; immobilised compound (amide-linked to poly-2-aminobenzoic acid electrode); logistic fit

N#Cc1nn(-c2c(Cl)cc(C(F)(F)F)cc2Cl)c(N)c1S(=O)C(F)(F)F (stereo not drawn)
KD [1]: 94.3 ± 0.5 nM
binding [2]: yes
KD [3]: 24.9 ± 1.7 nM
